Activity calls are given as the source filed them. The rule behind the calls is not given here.
Key:
J774.1 [1] = assay: Anti-inflammatory activity against mouse J774A.1 macrophage assessed as reduction in LPS-induced LDH release incubated for 1 hr in presence of nigericin by LDH assay; format: functional, cell-based; details: J774.1, 1 h
J774.1 [2] = assay: Anti-inflammatory activity against mouse J774A.1 macrophage assessed as reduction in LPS-induced LDH release at 10 uM incubated for 1 hr in presence of nigericin by LDH assay; format: functional, cell-based
[3] = target: Replicase polyprotein 1ab (Severe acute respiratory syndrome coronavirus 2) (UniProt P0DTD1); assay: Inhibition of SARS-CoV-2 MPro at 10 uM incubated for 5 mins by FRET assay
J774.1 [4] = assay: Anti-inflammatory activity against mouse J774A.1 macrophage assessed as reduction in LPS-induced cleaved casp-1 expression at 0.625 to 2.5 uM incubated for 1 hr in presence of nigericin by Western blot analysis; format: functional, cell-based; details: dose 0.625-2.5 µM
J774.1 [5] = assay: Anti-inflammatory activity against mouse J774A.1 macrophage assessed as reduction in LPS-induced IL-1beta maturation at 0.625 to 2.5 uM incubated for 1 hr in presence of nigericin by Western blot analysis; format: functional, cell-based; details: dose 0.625-2.5 µM
J774.1 [6] = assay: Anti-inflammatory activity against mouse J774A.1 macrophage assessed as reduction in LPS-induced pyroptosis cells at 0.625 to 2.5 uM incubated for 1 hr in presence of nigericin by PI/Hoechst 33342 staining based inverted fluorescence microscopic analysis; format: functional, cell-based; details: dose 0.625-2.5 µM, DDE = dose-dependent effect

Structure (SMILES) | IC50 (J774.1 [1]) | inhibition (J774.1 [2]) | inhibition [3] | Activity (J774.1 [4]) | Activity (J774.1 [5]) | Activity (J774.1 [6])
CC(C)=CCc1cc(C2=C(O)/C(=C/c3ccc(O)c(CC(O)C(C)(C)O)c3)OC2=O)c(O)cc1O (stereo not given) | 7.4 µM | Active | Active |  |  | 
CC(C)=CCc1cc(/C=C2\OC(=O)C(c3cc4c(cc3O)OC(C)(C)CC4)=C2O)ccc1O | 0.8 µM | Active | Active |  |  | 
CC(C)(O)C1Cc2cc(/C=C3\OC(=O)C(c4cc5c(cc4O)OC(C)(C)C(O)C5)=C3O)ccc2O1 (stereo not given) | 0.7 µM | Active | Active | Active | Active | Dde
CC(C)=CCc1cc(C2=C(O)/C(=C/c3ccc(O)c(CCC(C)(C)O)c3)OC2=O)c(O)cc1O | 3.1 µM | Active | Active |  |  | 
CC1(C)Oc2ccc(/C=C3\OC(=O)C(c4cc5c(cc4O)OC(C)(C)C(O)C5)=C3O)cc2CC1O (stereo not given) |  |  | Active |  |  | 
CC(C)=CCc1cc(C2=C(O)/C(=C/c3ccc4c(c3)C[C@H](C(C)(C)O)O4)OC2=O)c(O)cc1O | 4.9 µM | Active | Active |  |  | 
CC(C)(O)C(O)Cc1cc(/C=C2\OC(=O)C(c3cc4c(cc3O)OC(C)(C)C(O)C4)=C2O)ccc1O (stereo not given) |  |  | Active |  |  | 
CC(C)=CCc1cc(/C=C2\OC(=O)C(c3cc4c(cc3O)OC(C)(C)C(O)C4)=C2O)ccc1O (stereo not given) | 4.2 µM | Active | Active |  |  | 
CC(C)=CCc1cc(/C=C2\OC(=O)C(c3cc(CC=C(C)C)c(O)cc3O)=C2O)ccc1O | 3 µM | Active | Active |  |  | 
CC(C)=CCc1cc(/C=C2\OC(=O)C(c3ccc(O)cc3O)=C2O)ccc1O | 2.4 µM | Active | Active |  |  | 
CC(C)=CCc1cc(/C=C2\OC(=O)C(c3cc(CCC(C)(C)O)c(O)cc3O)=C2O)ccc1O | 3.3 µM | Active | Active |  |  | 
CC(C)=CCc1cc(C2=C(O)/C(=C/c3ccc4c(c3)CC(O)C(C)(C)O4)OC2=O)c(O)cc1O (stereo not given) | 2.8 µM | Active | Active |  |  | 
